Source: the supplement of paper PMC11451515

Assays:
Details in all cases: 48 h
SEM cells [1] = assay: AUC of viability dose-response curve (% viability x log10 dose units); higher = less sensitive
How it was run: (§1)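 Leukemia cells adapted to each medium were seeded at 500 or 1000 cells/well in 1536-well plates and dosed with library compounds in DMSO at 11 threefold doses from 47 μM to 0.79 nM for 48 h at 37°C. CellTiter-Glo One luminescence was normalised per plate to DMSO and cell-free wells, then fitted with a four-parameter log-logistic model over log10 doses. Area under the curve was taken from this fit by the trapezoidal rule, with curves above full viability scaled and curves failing quality control removed.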

P12-Ichikawa [2] = assay: as above
How it was run: as §1

NOMO1 [3] = assay: as above
How it was run: as §1

SEM cells [4] = assay: cell viability relative to DMSO control; higher = less cytotoxic
How it was run: (§2)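 Library compounds in DMSO were pin-dosed in an 11-point threefold series (47 μM to 0.79 nM) onto leukemia cells in 1536-well plates (5 μl). Plates held 500 cells/well of NOMO1 or SEM or 1000 cells/well of P12-Ichikawa, each adapted for at least four passages in each medium. Luminescence was read with CellTiter-Glo One after 48 h at 37°C. Viability means the per-plate percentage relative to DMSO wells, using cell-free wells as background.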

P12-Ichikawa [5] = assay: as above
How it was run: as §2

NOMO1 [6] = assay: as above
How it was run: as §2

CC\12CCC(=O)\C=C1CCC3C2CCC4(C)C3CCC4(O)C#C (stereo not drawn)
AUC of viability dose-response curve
Details	NOMO1 [3]	P12-Ichikawa [2]	SEM cells [1]
HPLM + 10% dialyzed FBS	456	442	452
RPMI 5 mM glucose + 10% FBS	430	452	461
RPMI 5 mM glucose + 10% dialyzed FBS	428	421	458

cell viability [%]
Details	NOMO1 [6]	P12-Ichikawa [5]	SEM cells [4]
HPLM + 10% dialyzed FBS, 0.000781 µM	98.9	102	105
HPLM + 10% dialyzed FBS, 0.00234 µM	101	101	104
HPLM + 10% dialyzed FBS, 0.00702 µM	106	99.2	105
HPLM + 10% dialyzed FBS, 0.0211 µM	91.1	93.9	99.9
HPLM + 10% dialyzed FBS, 0.0632 µM	112	97.9	113
HPLM + 10% dialyzed FBS, 0.19 µM	100	93.4	102
HPLM + 10% dialyzed FBS, 0.569 µM	98.3	92	103
HPLM + 10% dialyzed FBS, 1.71 µM	98.8	92.3	117
HPLM + 10% dialyzed FBS, 5.12 µM	77.5	94.2	91.1
HPLM + 10% dialyzed FBS, 15.4 µM	86.4	80.6	94.9
HPLM + 10% dialyzed FBS, 46.1 µM	88	92.3	90.5
RPMI 5 mM glucose + 10% FBS, 0.000781 µM	89.9	99.3	107
RPMI 5 mM glucose + 10% FBS, 0.00234 µM	93.2	102	92.2
RPMI 5 mM glucose + 10% FBS, 0.00702 µM	97.4	97.7	99.2
RPMI 5 mM glucose + 10% FBS, 0.0211 µM	103	100	102
RPMI 5 mM glucose + 10% FBS, 0.0632 µM	86.6	96.8	94.5
RPMI 5 mM glucose + 10% FBS, 0.19 µM	94.9	97.1	106
RPMI 5 mM glucose + 10% FBS, 0.569 µM	88.8	93.1	95.7
RPMI 5 mM glucose + 10% FBS, 1.71 µM	84	96.6	95.8
RPMI 5 mM glucose + 10% FBS, 5.12 µM	87.2	85.7	70.7
RPMI 5 mM glucose + 10% FBS, 15.4 µM	88.1	81.8	100
RPMI 5 mM glucose + 10% FBS, 46.1 µM	74.7	90.3	99
RPMI 5 mM glucose + 10% dialyzed FBS, 0.000781 µM	99.8	83.5	112
RPMI 5 mM glucose + 10% dialyzed FBS, 0.00234 µM	101	85.6	105
RPMI 5 mM glucose + 10% dialyzed FBS, 0.00702 µM	95.8	88.9	98.3
RPMI 5 mM glucose + 10% dialyzed FBS, 0.0211 µM	95.5	91.1	113
RPMI 5 mM glucose + 10% dialyzed FBS, 0.0632 µM	99.6	95.7	117
RPMI 5 mM glucose + 10% dialyzed FBS, 0.19 µM	96.1	93.6	102
RPMI 5 mM glucose + 10% dialyzed FBS, 0.569 µM	74.9	91.1	113
RPMI 5 mM glucose + 10% dialyzed FBS, 1.71 µM	79.2	88.6	98.5
RPMI 5 mM glucose + 10% dialyzed FBS, 5.12 µM	73.9	85.4	97.3
RPMI 5 mM glucose + 10% dialyzed FBS, 15.4 µM	83.5	84.2	106
RPMI 5 mM glucose + 10% dialyzed FBS, 46.1 µM	85.7	83	99.9
